Laboratory results taken from article PMC12108418, “Broad-Spectrum Gramicidin S Derivatives with Potent Activity Against Multidrug-Resistant Gram-Negative ESKAPE Pathogens” (Antibiotics, 2025).
Converted amounts (≈) assume the structure as drawn. Where two headings read alike, the source gives them in different places. Square brackets hold non-standard residues; d marks the D form. Peptide text beside a SMILES is read from it. Tle = CC(C)(C)[C@H](N)C(=O)O; Orn = NCCC[C@H](N)C(=O)O; Abu = CC[C@H](N)C(=O)O

Assays:
[1] = test system: Acinetobacter baumannii (ATCC 19606); format: cell-based
Protocol: (§1) The antibacterial efficacy of peptides was assessed using the broth microdilution method in accordance with Clinical and Laboratory Standards Institute (CLSI) guidelines (M07-A10, 2015 [33]). The minimum inhibitory concentrations (MICs) were determined against Escherichia coli (ATCC 25922), Klebsiella pneumoniae (ATCC 33495), Pseudomonas aeruginosa (ATCC 27853), Acinetobacter baumannii (ATCC 19606), and Staphylococcus aureus (ATCC 29213 and ATCC USA300). Bacterial suspensions were standardised to 5 × 10^4 colony-forming units (CFUs)/well in cation-adjusted Mueller–Hinton broth (CAMHB). Peptides were dissolved in 25% DMSO and serially diluted two-fold across 96-well plates, reaching final concentrations ranging from 256 to 0.125 µg/mL. The wells were inoculated, ensuring a final volume of 100 µL per well, with a DMSO concentration of 1% (v/v) to minimise solvent interference. […] Vancomycin was used as the positive control for S. aureus. Polymyxin B served as the positive control for Gram-negative bacteria. CAMHB with 1% (v/v) DMSO (without peptides) was used as the negative control. All experiments were performed in triplicate (n = 3). Bacterial isolates were stored in tryptone soy broth with 30% glycerol at −80 °C for long-term preservation.

[2] = test system: Escherichia coli (ATCC 25922); format: cell-based
Protocol: as §1

[3] = test system: Klebsiella pneumoniae (ATCC 33495); format: cell-based
Protocol: as §1

[4] = test system: Pseudomonas aeruginosa (ATCC 27853); format: cell-based
Protocol: as §1

human red blood cells = experiment: Haemolysis assay; format: cell-based; conditions: 1% human RBC suspension in HEPES-buffered saline pH 7.4, pooled from three donors, 0.125 to 256 μg/mL, 1 h, 37 °C, absorbance 540 and 410 nm, triplicate (n = 3)
Protocol: To evaluate haemolytic activity, fresh human blood was collected from three unrelated healthy volunteers to ensure donor variability. Red blood cells (RBCs) were separated by centrifugation at 3000 rpm for 5 min at 4 °C, followed by washing in HEPES-buffered saline (HBS; 150 mM NaCl, 5 mM HEPES-NaOH, pH 7.4). The samples were pooled, mixed, and all experiments were performed in triplicate to enhance reproducibility. Blood samples were used within 48 h of collection to preserve erythrocyte integrity. A 1% RBC suspension in HBS (200 μL) was distributed into 96-well plates, and peptide solutions (100 μL) were added to reach final concentrations ranging from 0.125 to 256 μg/mL. After a 1 h incubation at 37 °C, the plates were centrifuged (3000 rpm, 5 min, 4 °C), and 80 μL of each supernatant was transferred to a fresh microplate. Absorbance readings were taken at 540 nm and 410 nm to assess protein content and haemoglobin release, respectively. HBS served as a negative control and 1% Triton X-100 as a positive control (n = 3).

[5] = Analytical RP-HPLC retention time as measure of hydrophobicity; format: physicochemical; conditions: measure of global hydrophobicity, Phenomenex Kinetex 2.6 µm C18 (150 × 4.6 mm), 0.7 mL/min, ACN/TFA (100:0.0008) and water/TFA (100:0.001)
Protocol: Peptide purification was carried out via preparative RP-HPLC on an Agilent 1260 Infinity II system (Santa Clara, CA, USA) equipped with a 21.2 × 150 mm Agilent ZORBAX Eclipse Plus C18 column, operating at a flow rate of 25 mL/min. The mobile phase consisted of acetonitrile containing 0.0008% trifluoroacetic acid (v/v) as the organic phase and water with 0.001% TFA as the aqueous phase. […] Analytical HPLC analysis was performed on a Hewlett-Packard Series 1100 instrument using a Phenomenex (Torrance, CA, USA) Kinetex C18 column (150 mm × 4.6 mm, 2.6 µm particle size), under identical solvent conditions, to confirm purity.
HRMS of peptide 1. […] HRMS of peptide 2. […] HRMS of peptide 3. […] HRMS of peptide 4. […] HRMS of peptide 5. […] HRMS of peptide 6. […] HRMS of peptide 7. […] HRMS of peptide 8. […] HRMS of peptide 9. […] HRMS of peptide 10. […] HRMS of peptide 11. […] HRMS of peptide 12. […] HRMS of peptide 13. […] HRMS of peptide 14. […] HRMS of peptide 15. […] HRMS of peptide 16. […] HRMS of peptide 17. […] HRMS of peptide 18. […] HRMS of peptide 19.

[6] = broth microdilution in CAMHB, 5 × 10^4 CFU/well, 1% DMSO, 37 °C, 16–20 h, 256 to 0.125 µg/mL, triplicate (n = 3)

| MIC A. baumannii ATCC 19606 ([1]; ATCC 19606) | MIC E. coli ATCC 25922 ([2]; ATCC 25922) | MIC K. pneumonia ATCC 33495 ([3]; ATCC 33495) | RP-HPLC retention time tR [5] | MIC P. aeruginosa ATCC 27853 ([4]; ATCC 27853) | Compound | MIC A. baumannii ATCC 19606 [1, 6] | MIC E. coli ATCC 25922 [2, 6] | MIC K. pneumonia ATCC 33495 [3, 6] | MIC P. aeruginosa ATCC 27853 [4, 6] | HC50 (50% haemolytic concentration) (human red blood cells) |
| --- | --- | --- | --- | --- | --- | --- | --- | --- | --- | --- |
|  |  |  |  |  | CC(C)C[C@@H]1NC(=O)[C@H](CCCN)NC(=O)[C@H](C(C)(C)C)NC(=O)[C@@H]2CCCN2C(=O)[C@@H](Cc2ccccc2)NC(=O)[C@H](CC(C)C)NC(=O)[C@H](CCCN)NC(=O)[C@H](C(C)(C)C)NC(=O)[C@@H]2CCCN2C(=O)[C@@H](Cc2ccccc2)NC1=O [Peptide 13] (cyclo(L[dF]P[Tle][Orn]L[dF]P[Tle][Orn])) | 32 µg/mL (≈ 27.4 µM) | 32 µg/mL (≈ 27.4 µM) | 256 µg/mL (≈ 219 µM) | 128 µg/mL (≈ 109 µM) | 6.26 ± 0.35 µg/mL |
| 16 µg/mL (≈ 13.6 µM) | 32 µg/mL (≈ 27.2 µM) | 32 µg/mL (≈ 27.2 µM) | 16.32 min |  | CC[C@@H]1NC(=O)[C@@H]2CCCN2C(=O)[C@@H](CCCNC(=N)N)NC(=O)[C@H](CC(C)C)NC(=O)[C@H](CCCN)NC(=O)[C@H](C(C)C)NC(=O)[C@@H]2CCCN2C(=O)[C@@H](Cc2ccccc2)NC(=O)[C@H](CC(C)C)NC(=O)[C@H](CCCNC(=N)N)NC1=O [Peptide 17] (cyclo([Abu]RL[dF]PV[Orn]L[dR]P)) |  |  |  | 64 µg/mL (≈ 54.3 µM) |  |
| 32 µg/mL (≈ 27.5 µM) | 64 µg/mL (≈ 55 µM) | 64 µg/mL (≈ 55 µM) | 16.03 min | 128 µg/mL (≈ 110 µM) | CC[C@@H]1NC(=O)[C@@H]2CCCN2C(=O)[C@@H](CCCNC(=N)N)NC(=O)[C@H](CC(C)C)NC(=O)[C@H](CCCN)NC(=O)[C@H](CC)NC(=O)[C@@H]2CCCN2C(=O)[C@@H](Cc2ccccc2)NC(=O)[C@H](CC(C)C)NC(=O)[C@H](CCCNC(=N)N)NC1=O [Peptide 18] (cyclo([Abu][Orn]L[dR]P[Abu]RL[dF]P)) |  |  |  |  |  |
| 4 µg/mL (≈ 3.39 µM) | 16 µg/mL (≈ 13.6 µM) | 32 µg/mL (≈ 27.2 µM) | 17.15 min | 16 µg/mL (≈ 13.6 µM) | CC(C)C[C@@H]1NC(=O)[C@H](CCCN)NC(=O)[C@H](C(C)(C)C)NC(=O)[C@@H]2CCCN2C(=O)[C@@H](Cc2ccccc2)NC(=O)[C@H](CC(C)C)NC(=O)[C@H](CCCN)NC(=O)[C@H](C(C)(C)C)NC(=O)[C@@H]2CCCN2C(=O)[C@@H](CCCNC(=N)N)NC1=O [Peptide 19] (cyclo(L[dF]P[Tle][Orn]L[dR]P[Tle][Orn])) |  |  |  |  |  |
